# Reference: the OligoGym collection
# Several values for one entry are separate records, joined by “and”; a condition that tells them apart may be missing. Equal values may be shown once. After the bases stand the sugars from the 5' end (letter, count) and the backbone: PS all phosphorothioate, else s phosphorothioate and o phosphodiester by linkage. Methylation of C is not given here. e = 2'-O-(2-methoxyethyl) (MOE); k = constrained ethyl (cEt); d = 2'-deoxy (DNA)
# Biological target: IRF4
# Details: ASO
Sequence,"target mRNA inhibition (SK-MEL-28, 4 µM)","target mRNA inhibition (MM.1R, 1 µM)",further results
"TAAAAGAGGTGCTAGG (sugars k3 d10 k3, PS)",27%,,
"TAAAAGGTTCCTGTCA (sugars k3 d10 k3, PS)",6%,,
"TAAACAAGATGAATCC (sugars k3 d10 k3, PS)",44%,,
"TAAACAGTGCCCAAGC (sugars k3 d10 k3, PS)",41%,,
"TAAAGGAGTGCAGGAG (sugars k3 d10 k3, PS)",-7%,,
"TAAATTCTAGTTTGCC (sugars k3 d10 k3, PS)",68%,,
"TAACGAGGTGCCTTAC (sugars k3 d10 k3, PS)",,13%,
"TAACTAAAACTGCATC (sugars k3 d10 k3, PS)",10%,,
"TAAGAAGCACTGGCAT (sugars k3 d10 k3, PS)",26%,,
"TAAGAGGCGACTGCTG (sugars k3 d10 k3, PS)",-45%,,
"TAAGGAACAAGTGTAT (sugars k3 d10 k3, PS)",18%,,
"TAATCCACAATCAGCA (sugars k3 d10 k3, PS)",,-27%,
"TAATTACTGCTTGAGG (sugars k3 d10 k3, PS)",,62%,"target mRNA inhibition (MM.1R, 0.074 µM): 9%; target mRNA inhibition (MM.1R, 0.222 µM): 31%; target mRNA inhibition (MM.1R, 0.666 µM): 54%; target mRNA inhibition (MM.1R, 2 µM): 77%"
"TACAAAAACTTGGGTC (sugars k3 d10 k3, PS)",9%,,
"TACAAGCAGTCATCAC (sugars k3 d10 k3, PS)",29%,,
"TACAAGGTCTGAGTTG (sugars k3 d10 k3, PS)",,-6%,
"TACACCTACACAGGCT (sugars k3 d10 k3, PS)",19%,,
"TACAGGCACGGCTTCA (sugars k3 d10 k3, PS)",58%,,
"TACCAACGACAGCATA (sugars k3 d10 k3, PS)",61%,,
"TACCAGCTCAATAATC (sugars k3 d10 k3, PS)",,-27%,
"TACCTACAAGCAGTCA (sugars k3 d10 k3, PS)",56%,,
"TACGAGCACATGTCAA (sugars k3 d10 k3, PS)",36%,,
"TACGCTTATTTTTCCA (sugars k3 d10 k3, PS)",,51% and 56%,"target mRNA inhibition (MM.1R, 0.0625 µM): 1% and 12%; target mRNA inhibition (MM.1R, 0.25 µM): 29% and 44%; target mRNA inhibition (MM.1R, 4 µM): 65% and 77%"
"TACTCTTAGGCACATC (sugars k3 d10 k3, PS)",59%,,
"TACTGCTTGAGGTTTT (sugars k2 d9 e3 k2, PS)",,10%,
"TACTGCTTGAGGTTTT (sugars k3 d9 k3 e1, PS)",,13%,

Sequence,"target mRNA inhibition (SK-MEL-28, 4 µM)","target mRNA inhibition (MM.1R, 1 µM)",further results
"TACTGCTTGAGGTTTT (sugars kkdddddddddkdkdk, PS)",,15%,
"TACTGCTTGAGGTTTT (sugars kkkdddddddddkeke, PS)",,7%,
"TACTGCTTGAGGTTTT (sugars kkkddddddddkekek, PS)",,-8%,
"TACTGTTACCGATGCT (sugars kkddddddddddkeke, PS)",,24% and 17%,
"TACTTAAGCAAGTGGA (sugars k3 d10 k3, PS)",75% and 71%,,
"TAGAATGAGAGGTGTC (sugars k3 d10 k3, PS)",29%,,
"TAGAATGCATAACACG (sugars k3 d10 k3, PS)",,8%,
"TAGACTGACAGCCGAA (sugars k3 d10 k3, PS)",,3%,
"TAGCATCAGAGCTAGA (sugars k3 d10 k3, PS)",49%,,
"TAGCATGTATGCATTC (sugars k3 d10 k3, PS)",52%,,
"TAGCCAATTCCTCCAC (sugars k3 d10 k3, PS)",,1%,
"TAGGAGTGTAACTGAG (sugars k3 d10 k3, PS)",37%,,
"TAGGGATACAGCAGGC (sugars k3 d10 k3, PS)",73%,,
"TAGGTATACTTAAGCA (sugars k3 d10 k3, PS)",79%,,
"TAGTATGAGAAACGGC (sugars kddddddddddkekek, PS)",,24%,
"TAGTATGAGAAACGGC (sugars kkddddddddddkeke, PS)",,46%,
"TAGTATGAGAAACGGC (sugars kkdddddddddekeke, PS)",,50%,
"TAGTATGAGAAACGGC (sugars kkdddddddddkdkdk, PS)",,39%,
"TAGTATGAGAAACGGC (sugars kkkddddddddkekek, PS)",,30%,
"TAGTGTTCCAGGAGAT (sugars k3 d10 k3, PS)",,53%,"target mRNA inhibition (MM.1R, 0.074 µM): 15%; target mRNA inhibition (MM.1R, 0.222 µM): 29%; target mRNA inhibition (MM.1R, 0.666 µM): 52%; target mRNA inhibition (MM.1R, 2 µM): 80%"
"TAGTTAAGTACTTGGA (sugars k3 d10 k3, PS)",56%,,
"TAGTTTAAGGGTTACG (sugars k3 d10 k3, PS)",49%,,
"TATACTTAAGCAAGTG (sugars k3 d10 k3, PS)",47%,,
"TATAGAGCATCACTAT (sugars k3 d10 k3, PS)",41%,,
"TATAGTAGGTAAGATC (sugars k3 d10 k3, PS)",13%,,
"TATATGACGACTTAAG (sugars k3 d10 k3, PS)",30%,,

Sequence,"target mRNA inhibition (SK-MEL-28, 4 µM)","target mRNA inhibition (MM.1R, 1 µM)",further results
"TATTACCATGCATAGT (sugars k3 d10 k3, PS)",30%,,
"TCAAAAGTCTTAAGGG (sugars k3 d10 k3, PS)",7%,,
"TCAAACACTAATACCT (sugars k3 d10 k3, PS)",25%,,
"TCAAACCCTACTGGGT (sugars k3 d10 k3, PS)",8%,,
"TCAAAGTCATTGCTCT (sugars k3 d10 k3, PS)",21%,,
"TCAACCGCTGAACTGA (sugars k3 d10 k3, PS)",35%,,
"TCAAGAGGAACTAGTC (sugars k3 d10 k3, PS)",24%,,
"TCAAGTAAAGTGATCA (sugars k3 d10 k3, PS)",48%,,
"TCACAGATTAATAGTA (sugars k3 d10 k3, PS)",23%,,
"TCACAGTGATCATCAA (sugars k3 d10 k3, PS)",43%,,
"TCACATGATAAGGCAC (sugars k3 d10 k3, PS)",,19%,
"TCACCTGAAGGATTTG (sugars k3 d10 k3, PS)",25%,,
"TCACCTGGCAACCTGC (sugars k3 d10 k3, PS)",25%,,
"TCACGAAACACAGTCT (sugars k3 d10 k3, PS)",68%,,
"TCACTAAGCTTGATAA (sugars k3 d10 k3, PS)",37%,,
"TCAGAAATCACGAGGT (sugars k3 d10 k3, PS)",,,"target mRNA inhibition (MM.1R, 0.0625 µM): -11%; target mRNA inhibition (MM.1R, 0.25 µM): -5%; target mRNA inhibition (MM.1R, 4 µM): 37%"
"TCAGATTTACACCGTT (sugars k3 d10 k3, PS)",,14%,
"TCAGTTTGTGAAGCAT (sugars k3 d9 k3 e1, PS)",,58%,"target mRNA inhibition (MM.1R, 0.074 µM): 28%; target mRNA inhibition (MM.1R, 0.222 µM): 22%; target mRNA inhibition (MM.1R, 0.666 µM): 43%; target mRNA inhibition (MM.1R, 2 µM): 64%"
"TCAGTTTGTGAAGCAT (sugars kddddddddddkekek, PS)",,21%,
"TCAGTTTGTGAAGCAT (sugars kdddddddddkekeke, PS)",,9%,
"TCAGTTTGTGAAGCAT (sugars kkdddddddddekeke, PS)",,45%,
"TCAGTTTGTGAAGCAT (sugars kkdddddddddkekek, PS)",,58%,"target mRNA inhibition (MM.1R, 0.074 µM): 9%; target mRNA inhibition (MM.1R, 0.222 µM): 27%; target mRNA inhibition (MM.1R, 0.666 µM): 46%; target mRNA inhibition (MM.1R, 2 µM): 73%"
"TCAGTTTGTGAAGCAT (sugars kkkddddddddkekek, PS)",,41%,
"TCATGATGTATACCAA (sugars k3 d10 k3, PS)",65%,,
"TCCAACCTTTATGATT (sugars k3 d10 k3, PS)",,-3%,
"TCCACCCTCCGTCTCA (sugars k3 d10 k3, PS)",,-9%,

Sequence,"target mRNA inhibition (SK-MEL-28, 4 µM)","target mRNA inhibition (MM.1R, 1 µM)",further results
"TCCAGAAAATTCAGCT (sugars k3 d10 k3, PS)",48%,,
"TCCATTGGAGGAGGGT (sugars k3 d10 k3, PS)",33%,,
"TCCCACTGTCACTATG (sugars k3 d10 k3, PS)",15%,,
"TCCCCGTATCAAAAAA (sugars k3 d10 k3, PS)",-12%,,
"TCCCGAGGCCGGAGAC (sugars k3 d10 k3, PS)",-27%,,
"TCCCTAGGTCATACCC (sugars k3 d10 k3, PS)",58%,,
"TCCCTCCAGCTTCGGT (sugars k3 d10 k3, PS)",,-21%,
"TCCGCTTGGAGAATTA (sugars k3 d10 k3, PS)",13%,,
"TCCTAACCCTACCCTT (sugars k3 d10 k3, PS)",30%,,
"TCCTAGGTTTCAGTTG (sugars k3 d10 k3, PS)",48%,,
"TCCTATGGTCAGCCTC (sugars k3 d10 k3, PS)",48%,,
"TCCTGGCAGTGCTCTC (sugars k3 d10 k3, PS)",60%,,
"TCCTGTAGTATGAGAA (sugars k3 d10 k3, PS)",,22%,
"TCCTTTCCTACAGATC (sugars k3 d10 k3, PS)",33%,,
"TCGAGATCAGTCTCAA (sugars k3 d10 k3, PS)",58% and 82%,,
"TCGCCCATGAGTTGAA (sugars k3 d10 k3, PS)",39%,,
"TCGGTCCACATACCTG (sugars k3 d10 k3, PS)",39%,,
"TCTAAACCAGCATATT (sugars k3 d10 k3, PS)",33%,,
"TCTAAGGCAAGCTGAA (sugars k3 d10 k3, PS)",21%,,
"TCTACAAGGTCTGAGT (sugars k3 d10 k3, PS)",57%,,
"TCTATAAGATGTATAC (sugars k3 d10 k3, PS)",26%,,
"TCTATAGTGTTCCAGG (sugars kdddddddddkekeke, PS)",,12%,
"TCTATGGGATTATATA (sugars k3 d10 k3, PS)",26%,,
"TCTCAAGGAGATCCAC (sugars k3 d10 k3, PS)",1%,,
